Measured values taken from ChEMBL document CHEMBL1201862, “PubChem BioAssay data set” (2004).
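The compound was tested at five concentrations on cells cultured in 96-well plates, with a 48-hour exposure period. Here, GI50 denotes the concentration required for 50% inhibition of growth.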 The source made the active and inactive calls. Rule as the data show it: active = GI50 up to about 1.1 µM and inactive = higher. Where a SMILES comes first, the peptide text is derived from it. [ ]: non-standard residue; d: D form. The star is where a group is joined. NMeF = CN[CH](Cc1ccccc1)C(=O)O; NMeV = CN[CH](C(=O)O)C(C)C; Boc = CC(C)(C)OC(=O)*; OBn = c1ccc(CO*)cc1

Columns and labels:
Assay in all cases: growth of human tumour cells (NCI), 48 h
SK-MEL-28 = test system: SK-MEL-28
TK-10 = test system: TK-10
HCT-15 = test system: HCT-15
A498 = test system: A498
HT-29 = test system: HT-29
SK-MEL-2 = test system: SK-MEL-2
SN12C = test system: SN12C
SF-268 = test system: SF-268
UACC-62 = test system: UACC-62
SF-539 = test system: SF-539
UACC-257 = test system: UACC-257
M14 = test system: M14
CAKI-1 = test system: CAKI-1
SK-MEL-5 = test system: SK-MEL-5
UO-31 = test system: UO-31
RPMI-8226 = test system: RPMI-8226

Structure (SMILES)	GI50 (SK-MEL-28)	GI50 (TK-10)	GI50 (HCT-15)	GI50 (A498)	GI50 (HT-29)	GI50 (SK-MEL-2)	GI50 (SN12C)	GI50 (SF-268)	GI50 (UACC-62)	GI50 (SF-539)	GI50 (UACC-257)	GI50 (M14)	GI50 (CAKI-1)	GI50 (SK-MEL-5)	GI50 (UO-31)	GI50 (RPMI-8226)
O=P1(Oc2ccccc2)C(c2ccccc2)C(c2ccccc2)=NN1c1ccccc1 (centres undefined)	25.6 µM (inactive)	38.7 µM (inactive)	19.6 µM	29.6 µM (inactive)	18.3 µM (inactive)	15.9 µM (inactive)	25.9 µM (inactive)	29.4 µM (inactive)	18.2 µM (inactive)	18.4 µM (inactive)	27.9 µM (inactive)	19.7 µM (inactive)	23.9 µM (inactive)	–	–	–
O=C(O)c1ccc(C2C3C=CC(C3)C2[N+](=O)[O-])cc1 (centres undefined)	> 100 µM (inactive)	> 100 µM (inactive)	> 100 µM	> 100 µM (inactive)	> 100 µM (inactive)	> 100 µM (inactive)	> 100 µM (inactive)	> 100 µM (inactive)	> 100 µM (inactive)	> 100 µM (inactive)	> 100 µM (inactive)	> 100 µM (inactive)	> 100 µM (inactive)	> 100 µM (inactive)	> 100 µM (inactive)	> 100 µM (inactive)
CC(C)(CN1CCCCC1)C(=O)CC(SCCN)c1ccc(Cl)cc1 (centres undefined)	3.43 µM (inactive)	2.26 µM (inactive)	1.63 µM	2.32 µM (inactive)	1.95 µM (inactive)	1.7 µM (inactive)	1.49 µM (inactive)	2.78 µM (inactive)	1.65 µM (inactive)	1.66 µM (inactive)	2.09 µM (inactive)	1.82 µM (inactive)	1.71 µM (inactive)	1.73 µM (inactive)	3.35 µM (inactive)	1.38 µM (inactive)
CC(=O)O[C@]12CCCC1C1(O)C(O)CCCC12 (some centres undefined)	> 100 µM (inactive)	> 100 µM (inactive)	> 100 µM	–	> 100 µM (inactive)	> 100 µM (inactive)	> 100 µM (inactive)	> 100 µM (inactive)	> 100 µM (inactive)	–	> 100 µM (inactive)	> 100 µM (inactive)	–	> 100 µM (inactive)	> 100 µM (inactive)	> 100 µM (inactive)
O=C1C2c3[nH]c4ccccc4c3C3CCCCC3C2C(=O)N1c1ccccc1 (centres undefined)	> 100 µM (inactive)	46.5 µM (inactive)	> 100 µM	36.2 µM (inactive)	> 100 µM (inactive)	–	> 100 µM (inactive)	72.9 µM (inactive)	> 100 µM (inactive)	34 µM (inactive)	–	36.6 µM (inactive)	–	> 100 µM (inactive)	> 100 µM (inactive)	> 100 µM (inactive)
Clc1cc(Cl)c2n[se]nc2c1	> 100 µM (inactive)	38.3 µM (inactive)	> 100 µM	> 100 µM (inactive)	> 100 µM (inactive)	94 µM (inactive)	> 100 µM (inactive)	> 100 µM (inactive)	> 100 µM (inactive)	> 100 µM (inactive)	> 100 µM (inactive)	> 100 µM (inactive)	> 100 µM (inactive)	> 100 µM (inactive)	> 100 µM (inactive)	> 100 µM (inactive)
CC(C)C(NC(=O)OC(C)(C)C)C(=O)N(C)C(Cc1ccccc1)C(=O)N(C)C(C(=O)N(C)C(C(=O)OCc1ccccc1)C(C)C)C(C)C (centres undefined) (Boc-V[NMeF][NMeV][NMeV]-OBn; configuration not given here)	–	> 100 µM (inactive)	> 100 µM	–	20.2 µM (inactive)	–	> 100 µM (inactive)	> 100 µM (inactive)	> 100 µM (inactive)	> 100 µM (inactive)	39.6 µM (inactive)	62.8 µM (inactive)	–	12.5 µM (inactive)	> 100 µM (inactive)	10.3 µM (inactive)
